In the NIST ThermoML archive (doi:10.1021/je2007764):

Experiment: xn = mol fraction of the nth substance listed
Settings: Fluid (supercritical or subcritical phases), Buoyancy - hydrostatic balance with magnetic suspension - one sinker

[C-]#[O+] [carbon monoxide] + N#N
mass density [kg/m3]
Settings	x1 = 0.04999	x1 = 0.1002
250.04 K, 996.97 kPa	13.537	–
250.04 K, 1999 kPa	27.34	–
250.04 K, 4009.9 kPa	55.503	–
250.04 K, 6016.9 kPa	84.044	–
250.04 K, 16000 kPa	220.89	–
250.05 K, 969.13 kPa	–	13.157
250.05 K, 999.78 kPa	–	13.577
250.05 K, 2004.3 kPa	–	27.416
250.05 K, 3998.8 kPa	–	55.373
250.05 K, 7998.5 kPa	112.326	–
250.05 K, 8999 kPa	–	126.622
250.05 K, 9999.8 kPa	140.653	–
250.05 K, 11001 kPa	–	154.742
250.05 K, 11998 kPa	168.354	–
250.05 K, 13033 kPa	–	182.506
250.05 K, 14004 kPa	195.251	–
250.05 K, 15003 kPa	–	208.407
250.05 K, 17999 kPa	245.259	–
250.05 K, 18474 kPa	250.84	–
250.06 K, 3032.9 kPa	–	41.76
250.06 K, 5043.2 kPa	–	70.198
250.06 K, 5999.3 kPa	–	83.836
250.06 K, 6999.1 kPa	–	98.128
250.06 K, 7998.3 kPa	–	112.391
250.06 K, 9998.8 kPa	–	140.734
250.06 K, 11998 kPa	–	168.471
250.06 K, 13998 kPa	–	195.325
250.06 K, 15999 kPa	–	221.035
250.06 K, 16706 kPa	–	229.835
250.06 K, 18000 kPa	–	245.432
250.06 K, 19962 kPa	–	268.002
275.01 K, 997.91 kPa	–	12.276
275.01 K, 1984.4 kPa	–	24.502
275.01 K, 3998.5 kPa	–	49.641
275.01 K, 5998.9 kPa	–	74.708
275.01 K, 7999.4 kPa	–	99.667
275.02 K, 990.79 kPa	12.187	–
275.02 K, 1996 kPa	24.643	–
275.02 K, 4000.1 kPa	49.643	–
275.02 K, 9999.5 kPa	–	124.305
275.02 K, 11999 kPa	148.339	–
275.02 K, 12004 kPa	–	148.483
275.02 K, 13997 kPa	171.74	–
275.02 K, 14001 kPa	–	171.88
275.02 K, 15997 kPa	194.336	–
275.02 K, 15998 kPa	–	194.459
275.02 K, 17997 kPa	–	216.135
275.02 K, 18198 kPa	218.123	–
275.02 K, 19888 kPa	–	235.72
275.02 K, 19917 kPa	235.882	–
275.03 K, 6038.6 kPa	75.17	–
275.03 K, 8036.6 kPa	100.073	–
275.03 K, 10062 kPa	124.995	–
299.96 K, 1003.8 kPa	11.294	–
299.96 K, 2981.9 kPa	33.609	–
299.96 K, 4997.9 kPa	56.34	–
299.96 K, 6998.3 kPa	78.744	–
299.96 K, 9086.5 kPa	101.826	–
299.96 K, 11000 kPa	122.587	–
299.96 K, 12998 kPa	143.747	–
299.96 K, 14954 kPa	163.889	–
299.97 K, 986.71 kPa	11.101	–
299.97 K, 992.98 kPa	–	11.173
299.97 K, 1001.9 kPa	–	11.274
299.97 K, 1989.8 kPa	–	22.417
299.97 K, 1993.4 kPa	22.457	–
299.97 K, 2993.6 kPa	–	33.744
299.97 K, 3975 kPa	44.812	–
299.97 K, 3998.4 kPa	–	45.092
299.97 K, 5020.8 kPa	–	56.608
299.97 K, 5999.2 kPa	–	67.6
299.97 K, 6020.2 kPa	67.811	–
299.97 K, 7034 kPa	–	79.163
299.97 K, 8024.8 kPa	90.132	–
299.97 K, 9073.7 kPa	–	101.718
299.97 K, 9997.1 kPa	–	111.8
299.97 K, 10017 kPa	111.971	–
299.97 K, 11008 kPa	–	122.717
299.97 K, 11999 kPa	–	133.29
299.97 K, 13003 kPa	–	143.858
299.97 K, 13997 kPa	–	154.176
299.97 K, 14807 kPa	–	162.461
299.97 K, 15370 kPa	–	168.159
299.98 K, 7997.5 kPa	–	89.866
299.98 K, 11889 kPa	132.063	–
299.98 K, 13997 kPa	154.113	–
299.98 K, 15997 kPa	174.35	–
299.98 K, 16109 kPa	–	175.535
299.98 K, 17997 kPa	193.879	–
299.98 K, 17999 kPa	–	193.977
299.98 K, 19830 kPa	–	211.228
299.98 K, 19957 kPa	212.314	–
324.97 K, 13743 kPa	137.825	–
324.98 K, 996.21 kPa	10.328	–
324.98 K, 997.48 kPa	–	10.342
324.98 K, 1970.2 kPa	–	20.421
324.98 K, 1981.3 kPa	20.531	–
324.98 K, 2991.3 kPa	30.967	–
324.98 K, 3998.5 kPa	–	41.357
324.98 K, 4008.5 kPa	41.449	–
324.98 K, 4980 kPa	51.417	–
324.98 K, 5960.8 kPa	61.428	–
324.98 K, 6000 kPa	–	61.847
324.98 K, 7025.8 kPa	72.228	–
324.98 K, 7991 kPa	81.935	–
324.98 K, 7999.4 kPa	–	82.05
324.98 K, 8998.7 kPa	91.988	–
324.98 K, 9998.7 kPa	–	101.905
324.98 K, 10007 kPa	101.939	–
324.98 K, 10997 kPa	111.619	–
324.98 K, 11997 kPa	–	121.32
324.98 K, 12000 kPa	121.293	–
324.98 K, 12999 kPa	130.817	–
324.98 K, 13996 kPa	–	140.254
324.98 K, 15957 kPa	158.239	–
324.98 K, 15995 kPa	–	158.639
324.98 K, 17995 kPa	176.379	–
324.98 K, 17996 kPa	–	176.463
324.98 K, 19931 kPa	193.033	–
324.98 K, 19948 kPa	–	193.262
324.99 K, 14116 kPa	141.303	–
349.96 K, 991.96 kPa	–	9.538
349.96 K, 2999.2 kPa	–	28.731
349.96 K, 4997.9 kPa	–	47.663
349.96 K, 6997.9 kPa	–	66.355
349.96 K, 8997.6 kPa	–	84.725
349.96 K, 10998 kPa	–	102.742
349.96 K, 12999 kPa	–	120.335
349.96 K, 14996 kPa	–	137.446
349.96 K, 16994 kPa	–	154.09
349.96 K, 18214 kPa	–	164
349.97 K, 991.18 kPa	9.53	–
349.97 K, 993.39 kPa	–	9.551
349.97 K, 1959 kPa	18.808	–
349.97 K, 1978.8 kPa	–	18.999
349.97 K, 3922.5 kPa	–	37.508
349.97 K, 4004.8 kPa	38.283	–
349.97 K, 5997.7 kPa	–	57.048
349.97 K, 5998.2 kPa	57.037	–
349.97 K, 7998.9 kPa	–	75.601
349.97 K, 8018.6 kPa	75.757	–
349.97 K, 9998.3 kPa	–	93.794
349.97 K, 10022 kPa	93.976	–
349.97 K, 11997 kPa	–	111.586
349.97 K, 12018 kPa	111.731	–
349.97 K, 13995 kPa	–	128.938
349.97 K, 13997 kPa	128.911	–
349.97 K, 15994 kPa	145.784	145.829
349.97 K, 17992 kPa	162.172	162.217
349.97 K, 19655 kPa	175.42	–
349.97 K, 19959 kPa	–	177.859
374.95 K, 1995 kPa	–	17.848
374.95 K, 2998.2 kPa	–	26.743
374.95 K, 4980.9 kPa	–	44.17
374.95 K, 6997.6 kPa	–	61.627
374.95 K, 8997.4 kPa	–	78.624
374.95 K, 10995 kPa	–	95.265
374.95 K, 12994 kPa	–	111.524
374.95 K, 15016 kPa	–	127.569
374.95 K, 16990 kPa	–	142.823
374.95 K, 19967 kPa	–	165.012
374.96 K, 991.14 kPa	8.887	–
374.96 K, 993.41 kPa	–	8.908
374.96 K, 1989.3 kPa	17.794	–
374.96 K, 3998.5 kPa	35.556	–
374.96 K, 4004.8 kPa	–	35.621
374.96 K, 5997.9 kPa	52.996	–
374.96 K, 5999 kPa	–	53.019
374.96 K, 7996.5 kPa	70.138	–
374.96 K, 8024.2 kPa	–	70.391
374.96 K, 9996 kPa	86.957	–
374.96 K, 9997.9 kPa	–	86.999
374.96 K, 11988 kPa	–	103.381
374.96 K, 11996 kPa	103.411	–
374.96 K, 13993 kPa	–	119.504
374.96 K, 13995 kPa	119.477	–
374.96 K, 15990 kPa	135.101	135.151
374.96 K, 17987 kPa	–	150.362
374.96 K, 17988 kPa	150.312	–
374.96 K, 18988 kPa	–	157.82
374.96 K, 19817 kPa	163.859	–
374.96 K, 19971 kPa	–	165.047
400.02 K, 984.4 kPa	–	8.268
400.02 K, 997.16 kPa	–	8.375
400.02 K, 1934.5 kPa	16.2	–
400.02 K, 1975.5 kPa	–	16.545
400.02 K, 2994.3 kPa	–	24.985
400.02 K, 3986.3 kPa	33.151	–
400.02 K, 3997.3 kPa	–	33.254
400.02 K, 4997.1 kPa	–	41.415
400.02 K, 5996.1 kPa	–	49.523
400.02 K, 5998 kPa	49.518	–
400.02 K, 7005.5 kPa	–	57.622
400.02 K, 7994.6 kPa	–	65.495
400.02 K, 7996.6 kPa	65.491	–
400.02 K, 8987 kPa	–	73.307
400.02 K, 9895.5 kPa	–	80.402
400.02 K, 9973.2 kPa	80.982	–
400.02 K, 11025 kPa	–	89.118
400.02 K, 11992 kPa	96.459	–
400.02 K, 11994 kPa	–	96.505
400.02 K, 12991 kPa	–	104.017
400.02 K, 13990 kPa	111.428	111.464
400.02 K, 14988 kPa	–	118.8
400.02 K, 15986 kPa	126.014	126.048
400.02 K, 16227 kPa	–	127.785
400.02 K, 17982 kPa	–	140.257
400.02 K, 17985 kPa	140.246	–
400.02 K, 19027 kPa	147.507	–
400.03 K, 18458 kPa	–	143.591
